For 86 compounds, IC50 results are on record in PubChem BioAssay AID2305 (GlaxoSmithKline (GSK), 2010).

By IC50 is commonly meant the concentration that inhibits the measured activity by half. The low end stands for greater potency in that assay, the high end for weaker potency in that assay.

This test concerns P. falciparum 3D7 growth, pLDH absorbance. Description: P. falciparum 3D7 growth inhibition, dose response, strain 3D7 (AID 2305).

As for `CC(C)(C)c1ccc(NC(=O)c2cccc(CN3CCCN(Cc4cccc(O)c4)CC3)c2)cc1`, the IC50 was found to be 550 nM.

Compound `CC1=C(C(=O)Nc2cc3cn[nH]c3cc2F)C(c2cccc(NS(C)(=O)=O)c2)CC(=O)N1` (stereo unspecified) had an IC50 of 430 nM.

Consider `O=C(Nc1cccc(C(F)(F)F)c1)c1ccc(S(=O)(=O)NC2CCN(CC3CCCCC3)CC2)cc1`, for which the IC50 came to 1160 nM.

In the case of `CN(Cc1cccc(O)c1)C1CCN(c2cc(NC(=O)c3cccc(F)c3)ccn2)CC1`, the IC50 is 850 nM.

The compound `Cn1nc(-c2ccc(S(=O)(=O)N3CCC(CN4CCC(c5c[nH]c6ccccc56)CC4)CC3)s2)cc1C(F)(F)F` showed an IC50 of 1090 nM.

In turn, `COc1cc(C=CC(=O)N2CCC(CCN3CCC(c4c[nH]c5ccccc45)CC3)CC2)cc(OC)c1` gave an IC50 of 910 nM.

For the compound `O=C(c1cccc(-c2noc(C(F)(F)F)n2)c1)N1CCN(C(=O)c2ccc3cc[nH]c3c2)CC1`, the IC50 was 110 nM.

Regarding `O=C(CSc1ccc(Cl)cc1)NC1CCC(CN2CCC(c3c[nH]c4ccccc34)CC2)CC1` (stereo unspecified), the half-maximal inhibitory concentration (IC50) came out at 930 nM.

Regarding `Cc1[nH]c(C)c(-c2ccc(OCc3ccccc3)cc2)c(=O)c1Br`, the 50% inhibitory concentration (IC50) worked out at 280 nM.

The compound `O=C(NC(Nc1ccc([N+](=O)[O-])cc1)C(Cl)(Cl)Cl)c1cccc(Cl)c1` (stereo unspecified) gave an IC50 of 860 nM.

Take `Cc1ncsc1CCN1C(=O)CC2(C1=O)C(=O)N(Cc1ccccc1)c1ccc(Cl)cc12` (stereo unspecified): the 50% inhibitory concentration (IC50) was found to be 980 nM.

In turn, `CC(C)CNc1c2c(nc3cnn(-c4c5c(nc6cn[nH]c46)CCCC5)c13)CCCC2` showed an IC50 of 790 nM.

Regarding `CC[C@H]1CN2CC[C@@H]1C[C@H]2[C@H](O)c1cc(N2CCC(O)CC2)nc2ccc(OC)cc12`, the IC50 turned out to be 170 nM.

Consider `O=C(/C=C/c1ccc(Cl)c(Cl)c1)NCCCCCN1CCCC(C(=O)Nc2ccc(Cl)cc2)C1` (stereo unspecified), for which the IC50 came out at 850 nM.

Compound `Nc1nc2cccc3ccc4cccc1c4c32` yielded an IC50 of 920 nM.

Turning to `CCc1sc(CN(CCCNc2cc(=O)c3ccccc3[nH]2)Cc2sc(CC)c(Br)c2-c2ccsc2)c(-c2ccsc2)c1Br`, the IC50 is 90 nM.

In turn, `O=C(Nc1ccc(Cn2ncc(N3CCNCC3)c(Cl)c2=O)cc1)Nc1ccc(-c2ccccc2)cc1` gave an IC50 of 590 nM.

`O=C(Nc1ccccc1Oc1ccccc1)NC1CCN(c2ccnc3cc(Cl)ccc23)C1` (stereo unspecified) registered an IC50 of 170 nM.

Regarding `FC(F)(F)c1ccc2nc(-c3ccc(-c4ccc(CN5CCN(c6cnccn6)CC5)cc4)cc3)[nH]c2c1`, the IC50 was 690 nM.

The compound `CC1CN(c2cc(=O)n(Cc3ccc(NC(=O)Nc4ccc(-c5ccccc5)cc4)cc3)cn2)CC(C)N1` (stereo unspecified) came in with an IC50 of 970 nM.

For the compound `COc1ccc(N(C)Cc2cnc3nc(N)nc(N)c3n2)cc1`, the IC50 stood at 280 nM.

As to `O=C(/C=C/c1cc(C(F)(F)F)ccc1F)NC1CCC(CN2CCC(c3c[nH]c4ccccc34)CC2)CC1` (stereo unspecified), the IC50 is 820 nM.

Consider `COc1ccc2nccc([C@@H](O)CN3CCC(NC(=O)/C=C/c4ccc5cc(C)[nH]c5c4)CC3)c2c1`, for which the IC50 stood at 730 nM.

Regarding `COCC(C)n1c(C)cc(C(=O)CSc2nnc(Nc3ccccc3)s2)c1C` (stereo unspecified), the IC50 was 740 nM.

`COc1ccc(CN2CCC(CNCCc3c(Cl)cccc3Cl)CC2)cc1` came in with an IC50 of 430 nM.

Turning to `COc1ccc(NC(=O)Nc2ccc(-c3ccc(-c4nc5c(C)cccc5[nH]4)s3)cc2)cc1`, the IC50 was found to be 180 nM.

In turn, `CN1CCN(c2ccnc3ccc(NC(=O)Cc4ccc5ccccc5c4)cc23)CC1` returned an IC50 of 760 nM.

Consider `CCC[C@@H]([C@@H](CC1CCCCC1)C(=O)N[C@H](C(=O)Nc1nccs1)C(C)(C)SC)N(O)C=O`, for which the IC50 came out at 150 nM.

The compound `CCN(C)c1cc(C(=O)N[C@@H](Cc2ccccc2)[C@H](O)CNC(C)(C)c2cccc(OC)c2)cc(N2CCCC2=O)c1` showed an IC50 of 70 nM.

As to `CC(=O)Oc1c(C2CCN(CCCCNC(=O)c3ccc(NC(=O)c4ccc(Cl)cc4)cc3)CC2)ccc2c1CCCC2`, the IC50 was 760 nM.

As for `O=C(c1ccc(-c2ccccn2)s1)N1CCc2cc3nccc(N4CCN5CCC[C@H]5C4)c3cc21`, the IC50 was determined as 760 nM.

As for `CSc1nccc(-c2ccc3ccnc(N)c3c2)n1`, the IC50 stood at 920 nM.

Turning to `O=C(Nc1ccc(Br)cc1)c1cc(Br)ccc1NS(=O)(=O)c1ccc(C(F)(F)F)cc1`, the IC50 was found to be 180 nM.

Regarding `CNC(=O)c1cnc(Nc2ccc3[nH]c(=O)[nH]c3c2)nc1Nc1cccc(OC(C)C)c1`, the IC50 turned out to be 930 nM.

In turn, `Oc1ccc(Nc2nc(NCc3ccco3)c3ccccc3n2)cc1` gave an IC50 of 670 nM.

Compound `CCNc1cc(C(=O)N[C@@H](Cc2ccccc2)[C@H](O)CNCCc2cccc(C(F)(F)F)c2)cc(N2CCCC2=O)c1` gave an IC50 of 880 nM.

Turning to `O=C(Nc1ccccc1)N(Cc1ccccc1-c1cccc(CNCc2ccc3c(c2)OCO3)c1)C1CCN(Cc2ccccc2)CC1`, the IC50 turned out to be 110 nM.

As to `COc1c(OC)c(OC)c2ccccc2c1CCNCCCCNCCc1c(OC)c(OC)c(OC)c2ccccc12`, the IC50 turned out to be 610 nM.

On to `CCCCCCCN(CCCCCCC)CCCC(=O)Nc1ccnc2ccc(OC)cc12`, for which the IC50 came out at 150 nM.

In the case of `Cc1cccc2nc(C(=O)Nc3nc(CN4CCC(C)CC4)cs3)cn12`, the IC50 came to 760 nM.

For the compound `COc1cc2nc(N3CCC(NC(=O)c4cccc(N(C)C)c4)CC3)nc(N)c2cc1OC`, the IC50 is 610 nM.

For `CCCCCCc1cc(OC)c(OC)cc1C(C)Nc1ccnc2cc(Cl)ccc12` (stereo unspecified), the IC50 amounted to 490 nM.

Turning to `COc1ccc(-c2ccc(NC(=O)c3cccc(C#N)c3)cc2)cc1CN1CCNCC1`, the IC50 was determined as 730 nM.

`Cc1cc(F)ccc1Nc1nc(N(C)c2ccccc2)c2cc(OCCN(C)C)ccc2n1`: the IC50 turned out to be 790 nM.

Regarding `CCOc1c(Br)cc(Br)cc1CNCCCCNc1nc2ccccc2[nH]1`, the IC50 worked out at 390 nM.

`CN1CCCN(Cc2ccc(-c3cccc(NC(=O)c4ccc(Cl)cc4)c3)cc2)CC1` showed an IC50 of 610 nM.

For `O=C(C=Cc1cccs1)Nc1ccc(-c2nc3ccccc3[nH]2)cc1`, the IC50 worked out at 1140 nM.

The compound `CC(CCCCOCCc1ccccc1)NCC(O)c1cc(Cl)c(N)c(Cl)c1` (stereo unspecified) showed an IC50 of 790 nM.

The compound `Cc1cc(NCCC(=O)Nc2ccccc2)nc(NCCc2cccs2)n1` had an IC50 of 890 nM.

For `N#CCc1ccc(Nc2nccc(Nc3ccc(Oc4ccccc4)cc3)n2)cc1`, the IC50 worked out at 810 nM.

Turning to `CN(C)CCCOc1ccc(CCCCc2ccc(Cl)cc2C(=O)c2ccccc2)cc1`, the IC50 was 1030 nM.

`CN1CCN(c2ccc(-c3cccc(NC(=O)c4cccc(Cl)c4)c3)nn2)CC1` yielded an IC50 of 580 nM.

With `Fc1cccc(C=NNc2ccnc3ccc(C(F)(F)F)cc23)c1`, the IC50 came out at 730 nM.

As to `CC(=O)c1sc(Cc2nc3ccccc3s2)nc1C`, the IC50 was 1070 nM.

Compound `O=C(NC1CCN(CCC[C@]2(c3ccc(Cl)c(Cl)c3)CCCN(C(=O)c3ccccc3)C2)CC1)c1ccc(F)cc1` registered an IC50 of 880 nM.

Consider `Cc1cc(OCC2CCCN(c3ncc(C(=O)NC4CC4)cc3Cl)C2)ccc1F` (stereo unspecified), for which the IC50 came out at 1490 nM.

`Cc1cc(-c2cccc(CNCCc3ccc(Cl)cc3)c2)cnc1N` gave an IC50 of 1100 nM.

For `Cc1cc(NCCC(=O)NCCc2ccccc2)nc(NCCc2ccc(F)cc2)n1`, the IC50 was found to be 1080 nM.

Consider `Cc1noc(C)c1-c1cccc(CNCc2ccc(-c3cccc(-c4nc5ccc(C(F)(F)F)cc5[nH]4)c3)cc2)c1`, for which the concentration for half-maximal inhibition (IC50) was found to be 560 nM.

Take `COc1cccc(C(=O)N2CCOC(CCN3CCC(c4ccccc4)CC3)(c3ccc(Cl)c(Cl)c3)C2)c1` (stereo unspecified): the IC50 came to 510 nM.

As for `O=C(Nc1ccc(-c2nc3ccccc3[nH]2)cc1)c1ccc(S(=O)(=O)N2CCCCCC2)cc1`, the IC50 was found to be 410 nM.

In the case of `CC(C)CCN=C(N)c1ccc(OCCCCCOc2ccc(C(N)=NCCC(C)C)cc2)cc1`, the IC50 was 530 nM.

In the case of `N#Cc1cccc(-c2cccc(C(=O)NC3CCC(CCN4CCc5ccc(C#N)cc5CC4)CC3)c2)c1` (stereo unspecified), the IC50 was 260 nM.

Consider `CS(=O)(=O)Nc1cccc(-c2cnc3[nH]cc(-c4ccc(CCC(=O)O)cc4)c3c2)c1`, for which the IC50 stood at 1060 nM.

With `CCCCc1cc(N2CCC(NC(C)=O)C2)nc(Nc2ccc(C)cc2)n1` (stereo unspecified), the IC50 turned out to be 870 nM.

As to `Clc1ccc2c(N3CCCNCC3)ccnc2c1`, the IC50 came to 480 nM.

Compound `Cc1cccc2[nH]c(-c3ccc(-c4cccc(C(=O)NCCN5CCCC5)c4)s3)nc12` came in with an IC50 of 1140 nM.

`CC(=O)N1N=C(c2ccc(F)cc2)Sc2c1nc(-c1ccccc1)n2C(C)=O` displayed an IC50 of 650 nM.

As to `Cc1ccc(C2=NNC3(S2)C(=O)Nc2ccc(C)cc23)cc1` (stereo unspecified), the IC50 was determined as 1020 nM.

`Cn1cnc(CCNC(=O)c2cccc(-c3ccc(-c4nc5ccc(F)cc5[nH]4)cc3)c2)c1`: the IC50 turned out to be 940 nM.

Take `COc1ccc(CNCc2ccsc2)cc1-c1ccc(S(=O)(=O)NCCN2CCCC2)c(C)c1`: the IC50 was found to be 900 nM.

With `CC(C)Nc1cc(C(=O)N[C@@H](Cc2ccccc2)[C@H](O)CNC2CCOCC2)c(F)c(N2CCCCS2(=O)=O)c1`, the IC50 came to 180 nM.

In the case of `Oc1[nH]c2ccccc2c1N=NC(=S)N1CCOCC1`, the IC50 was found to be 910 nM.

In turn, `O=C(Nc1ccc2c(c1)CCC2)N[C@H]1CCN(Cc2ccc(OCCCN3CCCCC3)cc2)C1` had an IC50 of 860 nM.

`Oc1ccc2[nH]c(-c3ccc(F)cc3F)nc2c1CN1CCC(O)(c2ccccc2)CC1` registered an IC50 of 840 nM.

The compound `Cc1cc(C2CCN(CCCCNC(=O)c3ccc(-c4ccc(C(F)(F)F)cc4)cc3)CC2)c(C)cc1OCC#N` registered an IC50 of 1010 nM.

For the compound `O=C(Nc1ccc(C(F)(F)F)cc1)c1cc(Br)cnc1NCCCn1ccnc1`, the half-inhibitory concentration (IC50) worked out at 970 nM.

`CCCN(Cc1nnc(-c2cccs2)o1)C(=O)C1COc2ccccc2O1` (stereo unspecified): the IC50 stood at 850 nM.

As for `COc1c(C2CCN(CCCCNC(=O)c3cc(-c4ccc(C#N)cc4)n[nH]3)CC2)ccc2c1CCCC2`, the half-maximal inhibitory concentration (IC50) was 1160 nM.

Take `CCOC(=O)c1ccc(NC(=O)Nc2cccc(-c3ccc(-c4nc5ccc(F)cc5[nH]4)cc3)c2)cc1`: the IC50 is 90 nM.

`CN1CCC(O)(c2ccc(Br)cc2)C(C(O)c2ccc(Br)cc2)C1` (stereo unspecified) registered a half-inhibitory concentration (IC50) of 730 nM.

`Cc1cc(Nc2cccc(C(F)(F)F)c2)nc(Nc2cccc(C(F)(F)F)c2)n1` registered an IC50 of 640 nM.

In the case of `CCN1CCN(CC(O)CNC(=O)Nc2ccc(Cl)cc2)CC1` (stereo unspecified), the IC50 turned out to be 150 nM.

In turn, `CN(c1ccc(NC(=O)Nc2cc(C(C)(C)C)on2)cc1)c1ccnc(NCCN2CCOCC2)n1` showed an IC50 of 1120 nM.

In turn, `CC(C)Cc1csc(NC(=O)C=Cc2ccco2)c1C(=O)O` displayed an IC50 of 300 nM.

The compound `O=C(NCc1ccc(Cl)c(Cl)c1)c1ccc(C2CCN(Cc3ccc4nc[nH]c4c3)CC2)cc1` had an IC50 of 960 nM.
